Legend:
protein C = conditions: cited from earlier work
MC3T3-E1 cells = assay: Proliferation assay (WST-1); format: cell-based; conditions: 1% FBS
Procedure: Proliferation assay. MG63 cells were treated with various concentrations of rTMD23 for 1, 4, 7 days. The medium was replaced every 2-3 days. At the end, the amount of living cells in each well was measured with crystal violet assay. The cells in each well were washed by PBS twice right before staining. Crystal violet (0.5%, 300 μL) were added in each well for 15 min, followed by ddH2O rinse at least five times. Acetic acid (10%, 300 μL) were added to dissolute the crystal violet. Then, taking 100 μL/well into a 96 well plate to get an OD595 measurement. A proliferation assay on MC3T3-E1 cells with various concentrations of a variant of TMD23 was performed. Briefly, MC3T3-E1 cells in 96-well plates were treated with rTMD23NA at various concentrations for 1, 3, 5 days. The number of living cells in each well was measured with WST-1 reagent. The cells in each well were washed by DMEM medium twice right before staining with 100 μL of 10% WST-1 in DMEM. The absorption at A450 nm-A690 nm of each well was measured.
Human osteoblast-like cell line MG63 and osteoblast cell line MC3T3-E1 were used in the cell proliferation assay. Briefly, different concentrations of rTMD23 and rTMD23NA, which is a variant form of rTMD23, were respectively added to MG63 or MC3T3-E1 cell culture containing 1% FBS. […] The OD595 of the cell lysate in 10% acetic acid was measured to obtain the relative cell count in each well.

mice = assay: Calvarial bone defect healing with DCI treatment (μCT, H&E); format: in vivo, mouse; conditions: DCI alone
Procedure: FIGS. 8A-F show the effect of the TMD1 and TMD23 on calvarial bone healing. (8A) Cell migration, (8B) proliferation and (8C) mineralization of MG63 cells treated with the indicated dose of rTMD1. (8D) Calvarial bone healing of TM wild-type TM^wt/wt and TM domain 1 (TMD1)-deleted TM^LeD/LeD mice. (8E) μCT scanning and (8F) HE stain were used to evaluate the effect of vehicle, dichloroisocoumarin (DCI) and DCI plus rTMD23 or rTMD1 (100 μg/kg) on bone healing after a calvarial defect was created in mice. N=5 per group. Black bar=100 μm. White bar=1 mm. Dotted line indicates the section region. ***P<0.001.
Calvarial bone defect healing. Male mice were randomly assigned to designated groups. After anesthesia, a 4 mm-diameter defect on the calvaria was created and the wound was sutured. A combination of dichloroisocoumarin (DCI) (1 mM) or rTMD23 (0, 10, 100 μg/kg) and U0126 (20 μM) was subcutaneously injected once near the calvarial bone opening at week 1 after the surgery. Bone healing was monitored radiographically using μCT (Skyscan 1076, Antwerp, Belgium) and histologically at indicated time points (weeks 0 and 8) after the surgery. […] The quantification of the removed and regenerated bone volume (mm^3) performed by a 3D CT analyzer software (CTAN; Skyscan). […]

Compound | protein C activation activity (protein C) | cell proliferation (absorbance, WST-1) (MC3T3-E1 cells) | regeneration of calvarial bone defect (μCT and H&E) (mice)
rTMD23NA: recombinant TMD23 variant with two substitutions Asn364Ala and Asn391Ala, SEQ ID NO: 3 (274aa) | little or no protein C activation activity | enhance cell proliferation | –
O=c1oc(Cl)c(Cl)c2ccccc12 [DCI, dichloroisocoumarin] | – | – | reduced regeneration of calvarial bone defect

From patent publication US20230000955A1, “THROMBOMODULIN FUNCTIONAL DOMAINS FOR USE IN PROMOTING OSTEOBLAST FUNCTIONS AND BONE HEALING” (BLUE BLOOD BIOTECH CORP., priority 2019, published 2023)
